From patent US10799479B2, “Self-emulsifying formulations of DIM-related indoles” (BioResponse, L.L.C., priority 2015, dated 2020)
Blank lines part the entries; values can stand above or below the molecule they belong to.

What was measured:
[1] = source not stated; cited from earlier work
[2] = Shake-flask determination of maximum solubility of DIM; format: physicochemical; settings: HPLC
Method: The solubility was determined as described by Lindenberg et al., 2004, Eur J Pharm Biopharm. 58(2):265-78. […] The vials were incubated at 37±0.5° C. while shaking on a “Polymax 1040” orbital shaker (Heidolph, Schwabach). The samples of the solutions were taken after 4 or 24 hours by pressing the Uniprep® plunger down, diluted as appropriate, and the concentration of DIM was analyzed by HPLC, as described below. The measurements were done in triplicate. The maximum concentration of DIM in aqueous media used in this study was 0.6 μg/ml. […]

[3] = DIM solubility in excipients (incremental addition, microscopic observation); format: physicochemical; settings: olive oil or sunflower oil
Method: The first step in this development process was the testing of a variety of excipients chosen as potentially active in solubilizing DIM. […] The method involved weighing of approximately 2 grams of each of the liquid excipients into a small vial. Subsequently, a small amount of DIM was added and the mixture was shaken.
The method involved weighing of approximately 2 grams of each of the liquid excipients into a small vial. Subsequently, a small amount of DIM was added and the mixture was shaken. […] Continued testing of acceptable oil solvents for, e.g., nutritional supplement, self-emulsifying formulations using DIM as a representative DIM-related indole active ingredient included testing of the following oils: […]

[4] = Dispersion test in USP dissolution bath (DLS Nicomp, polarized light microscopy); format: physicochemical
Method: A dispersion test was performed on the miscible formulations in a USP dissolution bath. 830 μL of miscible mixture was introduced in 250 mL of purified water at 37° C. under agitation with a paddle at 100 rpm. Performance criteria were: ease of emulsification, homogeneity and fineness of the dispersion. The fineness of the dispersion was assayed by dynamic light scattering (DLS, Particle Sizing Systems Nicomp). Photomicrographs were obtained of crystals observed during light microscopic observation following 30 minutes of dispersion.
The dispersion of the formulation in 250 mL of water (equivalent to the FDA glass of water) was followed for observance of the precipitation of DIM after 30 minutes and was checked by polarized light microscopy. Study of Formulation “D” lead to the formation of a fine and turbid emulsion with a crystal formation showing particle size distribution of 283±66 nm (volume). […] The advantageous reduction in crystal size for Formulation N compared to Formulation D is attributed, at least in part, to a contribution from Peppermint Oil and low concentration of Polysorbate 80 (see FIG. 4, A, B, and C).

[5] = Single dose human oral bioavailability study; format: in vivo; settings: single oral dose 300 mg DIM, healthy individuals, mean
Method: In Part I of the Study, a treatment group was administered a 300 mg dose of DIM from BR-DIM or a 300 mg dose of DIM from crystalline DIM on the first study day, followed by crossover to the other DIM formulation on the second study day, at least 14 days following the first treatment. 3 subjects were given crystalline DIM, 4 subjects were given BR-DIM.
In Part II of the Study, five individuals, four of whom participated in Part I of the Study, were administered a 300 mg dose of DIM from DIM SMEDDS Formulation D. Testing of DIM SMEDDS formula D took place on one day with 5 subjects. The subjects were all healthy, adult volunteers, both male and female, not consuming DIM containing supplements and in a fasting state on study days. […]
The concentrations of DIM in human plasma samples were determined by a validated high-performance liquid chromatography with tandem mass spectrometry (LC-MS/MS) method. […] The analytes were monitored by a Waters Micromass triple quadrupole mass spectrometer (Milford, Mass., USA) using an electrospray probe in the positive ionization mode operating at a cone voltage of 23V for DIM and 13V for the internal standard zileuton. […] The transitions at 129.9>76.8 and 237.1>161.1 were monitored for DIM and zileuton, respectively. […] The lower limit of quantitation (LLOQ) was determined at 10 ng/mL for DIM in human plasma. […]

Molecule: Vitamin D
Log P of 2nd API drug [1]: 7.5

Molecule: CC(C)=CCC/C(C)=C/CC/C(C)=C/CC/C(C)=C/CC1=C(C)C(=O)c2ccccc2C1=O [menaquinone-4]
Log P of 2nd API drug [1]: 10-12

concentration of DIM in Octanol [2]: 2,300 μg/ml | ability to dissolve DIM [3]: very low
Molecule: c1ccc2c(Cc3c[nH]c4ccccc34)c[nH]c2c1 [DIM, 3,3′-diindolylmethane]

Particle Size Diameter after Dispersion in Water (nm) ([4]; Malvern Mastersizer, DIM as supplied by BioResponse): 3,010^1 nm | DIM Crystal Characteristics In Water Dispersion ([4]; polarized light microscopy after 30 minutes): Large | Cmax [5]: 18.1 ng/mL
Molecule: c1ccc2c(Cc3c[nH]c4ccccc34)c[nH]c2c1 [Crystalline DIM, 3,3′-diindolylmethane]
